# Assays:
# [1] = system: human diploid fibroblasts; assay: Fibroblast proliferation (MTT) in suboptimal nutritional medium; assay type: cell-based; details: for Cells/well (×10^3): control 15
# Description: This Example quantifies the biostimulating activity of GC-100 on human diploid fibroblasts in a suboptimal nutritional environment.
# Cellular proliferation, or mitotic activity, will be assessed using an MTT assay. MTT added to the microtiter wells is metabolized by succinate dehydrogenase of the citric acid cycle. Since the metabolism of MTT is dependent on mitochondrial activity, the amount of metabolite produced can be correlated with the number of viable cells present per well. The metabolite concentration is measured via spectrophotometry, with the absorption value converted to an absolute number that describes cellular growth based on standardized curves. The results are shown in Table 2 and FIG. 5, which is a graph showing fibroblast proliferation in a suboptimal nutritional environment.
# [2] = system: ultraviolet-induced erythema; assay: Ultraviolet-induced erythema, erythema scale; assay type: in vivo; details: for Erythema score (mean ± SD): scale 0 none to 4 severe
# Description: The anti-inflammatory activity of GC-100 was evaluated using ultraviolet-induced erythema as an endpoint.
# Ultraviolet radiation generates a predictable, dose-dependent cutaneous response over time. The pathological mechanism includes injury to epidermal, dermal, and vascular constituents of the skin with a local inflammatory response mediated by proinflammatory cytokines and prostaglandins. It is the objective of this experiment to determine whether GC-100 can alleviate an ultraviolet-mediated inflammatory response by qualitative assessment
# Erythema was quantified after 2, 4, 5, and 24 hours following irradiation using a standard erythema scale that has been shown historically to yield reproducible results.
# [3] = system: PGE2 synthesis by 3T3 fibroblasts; assay: Inhibition of PGE2 synthesis by 3T3 fibroblasts (ELISA); assay type: cell-based; details: for [PGE2]: 24 h
# Description: This Example establishes the anti-inflammatory potential of GC-100 by measuring the inhibition of PGE2 synthesis by 3T3 fibroblasts in cell culture.
# The cells are nourished in a medium enriched with arachidonic acid which leads to increased secretion of eicosanoids into the medium.
# The formation of prostaglandin PGE2 will be followed as a marker of eicosanoid synthesis, because it is a stable molecule secreted preferentially by 3T3 fibroblasts. The anti-inflammatory potential of an active ingredient may then be investigated by following the decrease in secretion of PGE2 in the culture medium.
# Quantification of PGE2 will be achieved using an enzyme-linked immunosorbant assay (ELISA). In principle, the PGE2 expressed by the cells in culture medium will compete with enzyme-linked PGE2 for available antibody, which is a constant. The concentration of enzyme-linked PGE2 is also constant and quantified prior to testing. The enzyme linked to PGE2 prior to testing is acetylcholinesterase. Since the quantity of PGE2 expressed by 3T3 cells in culture will vary based on the concentration of GC-100 present, the amount of antibody available to bind to the enzyme-linked PGE2 versus that produced by the 3T3 cells assumes an inverse relationship that is dependent on Brownian motion. After eliminating unreacted PGE2 through washing, substrate is added that binds to the enzyme-PGE2-antibody complex to generate a yellow color that is strongly evident using spectrophotometer set at 412 nm. The amount of light transmitted through the test sample is directly proportional to the intensity of the color change and, consequently, to the concentration of PGE2-enzyme-antibody complex.
# Create a mother solution (solution #1) containing complete DMEM, alcohol, and 2×10^5 3T3 fibroblasts for plating onto 25 cm^2 culture dishes. Using a compounding dilution technique, prepare the following solutions, using 5 mL of media per plate: • Solution #2: Solution #1 plus arachidonic acid (10^−3% P/V) • Solution #3: Solution #2 plus indomethacin (0,1,10^−3% P/V) • Solution #4: Solution #2 plus GC-100 0.5% • Solution #5: Solution #2 plus GC-100 1.0%
# Incubate all preparations for 24 hours at 37° C. Recover the supernatant media, and if needed deep freeze it at −20° C. before quantification. Count the number of surviving cells using a coulter counter. Establish a calibration curve of the quantity of PGE2. Quantify the supernatant media using an enzyme-linked immunosorbant assay kit specific for PGE2 (Cayman), using a Dynotech microplate reader (MR500) with a filter set at 412 nm. Calculate the % inhibition of PGE2 synthesis. The results are shown in Table 4 and FIG. 10, which is a graph showing mean suppression of PGE2 concentration in test media comprising indomethacin or GC-100.
# [4] = Radial forearm free-flap, trophic effect; assay type: in vivo
# [5] = DMEM + AA + 0.5% GC-100, column A
# [6] = DMEM + AA + 0.5% GC-100, column B
# [7] = DMEM + AA + 0.5% GC-100, column C
# [8] = DMEM + AA + 1% GC-100, column A
# [9] = DMEM + AA + 1% GC-100, column B
# [10] = DMEM + AA + 1% GC-100, column C
substance,measurement,setting,value
H-Lys-Pro-NH2 [GC-100],Cells/well (×10^3),[1]; 0.1% GC-100,17 ×10^3 cells/well
same,Cells/well (×10^3),[1]; 0.5% GC-100,20 ×10^3 cells/well
same,Cells/well (×10^3),[1]; 1.0% GC-100,21 ×10^3 cells/well
same,Cells/well (×10^3),[1]; 5% GC-100,28 ×10^3 cells/well
same,Cells/well (×10^3),[1]; 10% GC-100,24 ×10^3 cells/well
same,Cumulative fibroblast proliferation (mitosis),[1]; in the presence of GC-100,83%
same,% printed under erythema score (reduction vs control),"[2]; 0.1% GC-100, 2 hrs",32%
same,Erythema score (mean ± SD),"[2]; 0.1% GC-100, 2 hrs after irradiation",1.89 ± 0.60
same,% printed under erythema score (reduction vs control),"[2]; 0.1% GC-100, 4 hrs",58.7%
same,Erythema score (mean ± SD),"[2]; 0.1% GC-100, 4 hrs after irradiation",1.56 ± 0.53
same,% printed under erythema score (reduction vs control),"[2]; 0.1% GC-100, 5 hrs",58.3%
same,Erythema score (mean ± SD),"[2]; 0.1% GC-100, 5 hrs after irradiation",1.67 ± 0.71
same,% printed under erythema score (reduction vs control),"[2]; 0.1% GC-100, 24 hrs",50%
same,Erythema score (mean ± SD),"[2]; 0.1% GC-100, 24 hrs after irradiation",1.00 ± 0.71
same,effect on ultraviolet-induced erythema,"[2]; 0.1%, 0.5%, 1% GC-100, greatest activity with 1%",ability to suppress ultraviolet-induced erythema
same,% printed under erythema score (reduction vs control),"[2]; 0.5% GC-100, 2 hrs",56.1%
same,Erythema score (mean ± SD),"[2]; 0.5% GC-100, 2 hrs after irradiation",1.22 ± 0.44
same,% printed under erythema score (reduction vs control),"[2]; 0.5% GC-100, 4 hrs",58.7%
same,Erythema score (mean ± SD),"[2]; 0.5% GC-100, 4 hrs after irradiation",1.56 ± 0.53
same,% printed under erythema score (reduction vs control),"[2]; 0.5% GC-100, 5 hrs",58.7%
same,Erythema score (mean ± SD),"[2]; 0.5% GC-100, 5 hrs after irradiation",1.56 ± 0.53
same,% printed under erythema score (reduction vs control),"[2]; 0.5% GC-100, 24 hrs",55.5%
same,Erythema score (mean ± SD),"[2]; 0.5% GC-100, 24 hrs after irradiation",0.89 ± 0.33
same,% printed under erythema score (reduction vs control),"[2]; 1.0% GC-100, 2 hrs",64%
same,Erythema score (mean ± SD),"[2]; 1.0% GC-100, 2 hrs after irradiation",1.00
same,% printed under erythema score (reduction vs control),"[2]; 1.0% GC-100, 4 hrs",67%
same,Erythema score (mean ± SD),"[2]; 1.0% GC-100, 4 hrs after irradiation",1.22 ± 0.44
same,% printed under erythema score (reduction vs control),"[2]; 1.0% GC-100, 5 hrs",66.81%
same,Erythema score (mean ± SD),"[2]; 1.0% GC-100, 5 hrs after irradiation",1.33 ± 0.50
same,% printed under erythema score (reduction vs control),"[2]; 1.0% GC-100, 24 hrs",83.5%
same,Erythema score (mean ± SD),"[2]; 1.0% GC-100, 24 hrs after irradiation",0.33 ± 0.50
same,"% change of PGE2 vs DMEM + AA, MEAN",[3]; DMEM + AA + 0.5% GC-100,−13%
same,% change of PGE2 vs DMEM + AA,[3]; [5],−10.5%
same,[PGE2],[3]; [5],2.81 pg/mL
same,% change of PGE2 vs DMEM + AA,[3]; [6],−19.7%
same,[PGE2],[3]; [6],2.41 pg/mL
same,% change of PGE2 vs DMEM + AA,[3]; [7],−8.7%
same,[PGE2],[3]; [7],2.62 pg/mL
same,"% change of PGE2 vs DMEM + AA, MEAN",[3]; DMEM + AA + 1% GC-100,−23.9%
same,% change of PGE2 vs DMEM + AA,[3]; [8],−23.9%
same,[PGE2],[3]; [8],2.39 pg/mL
same,% change of PGE2 vs DMEM + AA,[3]; [9],−27.7%
same,[PGE2],[3]; [9],2.17 pg/mL
same,% change of PGE2 vs DMEM + AA,[3]; [10],−20.2%
same,[PGE2],[3]; [10],2.29 pg/mL
same,mean decrease of PGE2 expression below untreated control,[3]; GC-100 1%,24%
same,acceleration of generalized healing,"[4]; free flap full-thickness skin graft model, skin overlying a muscle belly",50%
same,physical examination of treated flap skin,[4]; superior half of flap treated three times over 9 days from postoperative day 14,"noticeably thicker, smoother and less erythematous"
